Results as given in PubChem BioAssay (NCI).
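Five compound concentrations were applied to cells in 96-well plates for 48 hours; endpoints were derived by simple linear interpolation of the resulting dose-response curve. TGI: concentration producing complete growth inhibition.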

Tests used:
Experiment in all cases: NCI-60 cell line screen, 48 h
[1] = test system: CAKI-1 renal
[2] = test system: CCRF-CEM leukemia
[3] = test system: DU-145 prostate
[4] = test system: EKVX NSCLC
[5] = test system: HOP-62 NSCLC
[6] = test system: HOP-92 NSCLC
[7] = test system: K-562 leukemia
[8] = test system: M14 melanoma
[9] = test system: MCF7 breast
[10] = test system: MDA-MB-435
[11] = test system: NCI-H226 lung
[12] = test system: NCI-H23 lung
[13] = test system: NCI-H522 lung
[14] = test system: OVCAR-3 ovarian
[15] = test system: OVCAR-4 ovarian
[16] = test system: SF-295 CNS
[17] = test system: SF-539 CNS
[18] = test system: SK-OV-3 ovarian
[19] = test system: T-47D breast
[20] = test system: UACC-62 melanoma

SMILES | TGI [1] [µM] | TGI [2] [µM] | TGI [3] [µM] | TGI [4] [µM] | TGI [5] [µM] | TGI [6] [µM] | TGI [7] [µM] | TGI [8] [µM] | TGI [9] [µM] | TGI [10] [µM] | TGI [11] [µM] | TGI [12] [µM] | TGI [13] [µM] | TGI [14] [µM] | TGI [15] [µM] | TGI [16] [µM] | TGI [17] [µM] | TGI [18] [µM] | TGI [19] [µM] | TGI [20] [µM]
O=c1oc2ccc(Cl)cc2cc1-c1cn2ccccc2n1 | 45.9 | > 100 | > 100 | > 100 | 16.1 | > 73.3 | > 100 | > 100 | 99.2 | > 100 | > 94.8 | 46.8 | > 100 | > 100 | 29.8 | 24.5 | > 100 | 6.52 | > 100 | 38.2
CN(C)c1ccc(-c2ccc(N(C)C)c3n[se]nc23)c2n[se]nc12 | > 100 | > 100 | > 100 | > 100 | > 100 | > 100 | > 100 |  | > 100 | > 100 | > 100 | > 100 | > 100 | > 100 | > 100 | > 100 | > 100 | > 100 | > 100 | > 100
CC1(C)C2CC3C4CC5(Nc6ccccc6C5N41)[C@]3(C)CC2=O (stereo partly drawn) | > 50 | > 50 | > 50 | > 50 | > 50 | > 50 | > 50 |  | > 50 | > 50 | > 50 | > 50 | > 50 | > 50 | > 50 | > 50 | > 50 |  | 33.3 | > 50
Cc1ccc(N=NN(C)C(=O)C(C)N)cc1 (stereo not drawn) | > 100 | > 100 | > 100 | > 100 | > 100 | > 100 | > 100 | > 100 | > 100 | > 100 | > 100 | > 100 | > 100 | > 100 | > 100 | > 100 | > 100 |  | > 100 | > 100
O=C(CC(=O)N1N=C(N(c2ccccc2)c2ccccc2)CC1c1ccccc1)Nc1ccc(Cl)cc1 (stereo not drawn) | > 100 | > 100 | > 100 | > 100 | > 100 | > 100 | > 100 | > 100 | > 100 | > 100 | > 100 | > 100 | > 100 | > 100 | > 100 | > 100 | > 100 | > 100 | > 100 | > 100
O=C1NC(=O)/C(=C/c2ccc(S(=O)(=O)N/N=C\C(O)C(O)C(O)C(O)CO)cc2)N1 (stereo not drawn) | > 100 | > 100 | > 100 | > 100 | > 100 | > 100 | > 100 | > 100 | > 100 | > 100 | > 100 | > 100 |  | > 100 | > 100 | > 100 |  | > 100 | > 100 | > 100
C=CC(Br)(CBr)CCC(Br)C(C)(C)Cl (stereo not drawn) |  | 7.45 | 9.92 | 26.8 | 7.87 | 4.32 | 5.1 | 14.6 | 4.89 | 5.82 | 52.9 | 12.9 | 2.79 | 5.25 | 10.4 | 3.6 | 3.78 | 30.1 | 3.95 | 17.3
N#Cc1c(O)c(N=Nc2ccc(Cl)cc2)c(=O)n2c1[nH]c1ccccc12 | > 100 | > 100 | > 100 | > 100 | 65.3 | 76.9 | > 100 | > 100 | > 100 | > 100 | > 100 | > 100 | > 100 | 80.8 | > 100 | > 100 | > 100 | > 100 | > 100 | > 100
COc1ccc(N=Nc2c(C)c(C#N)c(=S)n(C3OC(CO)C(O)C(O)C3O)c2C)cc1 (stereo not drawn) | > 100 | 89.2 | > 100 |  | > 100 | 64.8 | > 100 | > 100 | > 100 | > 100 |  | > 100 |  | > 100 | > 100 | > 100 | > 100 | > 100 | 79.8 | > 100
Cc1ccc(/C=C2\CCCC(CN(C)C)C2=O)cc1 (stereo not drawn) | 2.88 | > 100 | 21.9 | 31.5 | 34.7 | 3.75 | > 100 | 3.31 | 1.92 | 3.74 | 6.82 | 4.97 | 1.98 | 3.22 | 3.8 | 31.2 | 6.61 | 26.4 | 3.25 | 5.09
CN1C=Cc2nccc3cc4c(c1c23)OCO4 | 5.77 | > 100 | > 25.1 | 13.8 | 32.7 | > 68.5 | > 100 | 11.7 | > 23.6 | 12.1 | 43.5 | 10.3 | 8.2 | > 72.4 | 47.5 | 10.1 |  | 61.6 | > 27.1 | 5.36
COc1ccccc1N=N/C(=N\NC(=O)c1ccc(C)cc1)c1ccc(N(CCC#N)CCC#N)cc1C | > 100 | > 100 | > 100 | > 100 | > 100 | > 100 | > 100 | > 100 | > 100 | > 100 | 28.5 | 94.4 |  | 61.9 | > 100 | > 100 | > 100 | > 100 | > 100 | 
O=C(O)C1(Cc2ccc3c(c2)CCC3)Cc2ccccc2C1 |  | > 100 | > 100 | > 100 | > 100 | > 100 | > 100 | > 100 | > 100 | > 100 | > 100 | > 100 | > 100 | > 100 | > 100 | > 100 | > 100 | > 100 | > 100 | > 100
COc1ccc(/C=C2/NC(=S)N=C2Cl)cc1 | > 100 | > 100 | > 100 | > 100 | > 100 | > 100 | > 100 | > 100 | > 100 | > 100 | > 100 | > 100 | > 100 | > 100 | > 100 | > 100 | > 100 | > 100 | > 100 | 
Nc1c(N2CCOCC2)c(=O)nc2[nH]/c(=C\c3ccccc3)c(=O)n12 | > 100 | > 100 | > 100 | > 100 |  | > 100 | 93 | > 100 | > 100 | > 100 | > 100 | > 100 | > 100 |  | > 100 | > 100 | > 100 | > 100 | > 100 | 
O=C(O)CN1CCN(CC(=O)N2CCN(C(=O)OCc3ccccc3)CC2)CCN(CC(=O)O)CCN(CC(=O)N2CCN(C(=O)OCc3ccccc3)CC2)CC1 | > 100 | > 100 | > 100 | > 100 | > 100 | > 100 | > 100 | > 100 | > 100 | > 100 | > 100 |  | > 100 | > 100 | > 100 | > 100 | > 100 | > 100 | > 100 | > 100
Fc1cccc(Cl)c1C1SCc2nc3cc4ccccc4cc3n21 (stereo not drawn) | > 100 | > 100 | > 100 | > 100 | > 100 | 72.3 | > 100 | > 100 | > 100 | > 100 | > 100 | > 100 |  | > 100 | > 100 | > 100 | > 100 | > 100 | > 100 | > 100
CCOC(=O)/C=C/[C@H](O)[C@@H](O)/C=C/C(=O)OCC | 45.8 | 32.6 | > 100 | 58.8 | 85 | 33.5 | 27.7 |  | 79.7 | > 100 | > 100 | > 100 | 39.2 | 64.7 | > 100 | > 100 | > 100 | > 100 | > 100 | 57.4
CN(C)C=NCCN1CCOCC1 |  | > 100 | > 100 | > 100 | > 100 | > 100 | > 100 | > 100 | > 100 | > 100 | > 100 | > 100 | > 100 | > 100 | > 100 | > 100 | > 100 | > 100 | > 100 | > 100
CC(=O)c1cccc(NC(=O)C(=O)C(c2cnc3ccc([N+](=O)[O-])cc3n2)[N+](=O)[O-])c1 (stereo not drawn) | > 100 | > 100 | > 100 | > 100 | > 100 | > 100 | > 100 | > 100 | > 100 | > 100 | > 100 | > 100 |  | > 100 | > 100 | > 100 | > 100 | > 100 | > 100 | > 100
CCCCCCCCCCCCOc1ccc(/C=C/C2=[N+](CCCl)CCO2)cc1 | > 100 | > 100 | > 100 | > 100 | > 100 | 86.5 | > 100 | > 100 | > 100 | > 100 | > 100 |  | 47 | 37.9 | > 100 | > 100 | > 100 | > 100 | > 100 | > 100
CC(C)(C)OC/C=C1\C(=O)O[C@H]2C[C@@H](O[Si](C)(C)C(C)(C)C)C[C@@H]12 | > 100 | > 100 | > 100 | > 100 | > 100 | > 100 | > 100 | > 100 | > 100 | > 100 | > 100 | > 100 | 90.7 | > 100 | > 100 | > 100 |  | > 100 | > 100 | 
O=C(Cc1nc2ncccc2[nH]c1=O)c1c[nH]c2ccccc12 | 31.9 | 40.3 | 32.7 | 56.9 | 36.9 | 38.4 | 63.2 | 43.1 | 32.3 | 30.7 |  | 54 | 35.4 | 32.5 |  | 31.9 | 31.5 | 29.8 | 34.5 | 31.2
CCOC(=O)c1nc2ccccc2nc1Oc1cc(OC)c(OC)c(OC)c1 | > 100 | > 100 | > 100 | > 100 | > 100 | > 100 |  | > 100 | > 100 | > 100 |  | > 100 | > 100 | > 100 | > 100 | > 100 | > 100 |  | > 100 | > 100
O=C(NCCN1CCCCC1)c1ccc(I)cc1 | > 100 | > 100 | > 100 | > 100 | > 100 | > 100 | > 100 | > 100 | > 100 | > 100 | > 100 | > 100 | > 100 | > 100 | > 100 | > 100 | > 100 | > 100 | > 100 | 
